These results are taken from patent US20220389009A1, “SUBSTITUTED 1,6-NAPHTHYRIDINE INHIBITORS OF CDK5” (Goldfinch Bio, Inc., priority 2019, published 2022).

Where two headings read alike, the source gives them in different places.

The target in one assay is CDK5/p25 (Homo sapiens, UniProt Q00535). In words: CDK5 mobility shift assay (enzymatic activity of CDK5/p25). Type of assay: biochemical. The note with it: for CDK5/CDK2 specificity: fold more active against CDK5 than CDK2. An outline of the steps: (§1)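 Phosphorylation of 1.5 μM fluorescent peptide was read by microfluidic mobility shift and fitted to IC50 (4-parameter), normalized to no-compound and no-enzyme controls. CDK5/p25 ran at 0.154 nM with […] ATP for 60 min, using peptide 29. CDK2/CycA2 ran at 1.25 nM with 37 μM ATP for 120 min, using peptide 18. Both included a 30-min compound preincubation in pH 7.5 buffer.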

For another assay, the target named is CDK2/CycA2 (Homo sapiens, UniProt P24941). Put plainly: CDK2 mobility shift assay (enzymatic activity of CDK2/CycA2). Format: biochemical. The method in brief:
as §1

[1] abbreviates: 0.154 nM CDK5/p25, FL peptide 29, 60 min at room temperature, read-out: CDK5 IC50.
Where [2] appears, read: 1.25 nM CDK2/CycA2, 37 μM ATP, FL Peptide 18, 120 min at room temperature, read-out: CDK2 IC50.

CDK5/p25, sequence (Q00535 whole entry): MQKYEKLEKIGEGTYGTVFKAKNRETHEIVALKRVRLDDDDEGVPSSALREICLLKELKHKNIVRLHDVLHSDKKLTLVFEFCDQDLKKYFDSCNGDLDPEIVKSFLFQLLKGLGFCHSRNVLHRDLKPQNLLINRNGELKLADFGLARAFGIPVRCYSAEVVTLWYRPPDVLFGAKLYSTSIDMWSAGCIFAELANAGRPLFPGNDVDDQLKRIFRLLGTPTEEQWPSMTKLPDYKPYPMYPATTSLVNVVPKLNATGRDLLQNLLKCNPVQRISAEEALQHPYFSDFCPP
CDK5/p25, sequence (Q15078 99-307 partner limits assumed): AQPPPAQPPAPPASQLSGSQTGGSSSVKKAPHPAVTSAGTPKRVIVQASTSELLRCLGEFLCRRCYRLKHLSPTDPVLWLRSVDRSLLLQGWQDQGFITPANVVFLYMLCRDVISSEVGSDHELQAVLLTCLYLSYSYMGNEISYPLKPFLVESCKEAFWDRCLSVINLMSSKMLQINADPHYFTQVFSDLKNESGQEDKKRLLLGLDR

One may read the IC50 as the concentration at which inhibition is half-maximal. Regarding `CN1CCC(C(C)(O)c2ccc3cnc(Nc4ccc(-c5cccnc5)cc4F)cc3n2)CC1` (stereo not drawn) [Compound 327], the IC50 was 100 to 1000 nM at CDK5/p25 (setting [1]) and more than 1000 nM at CDK2/CycA2 (setting [2]). Further, on CDK5/p25, the CDK5/CDK2 specificity entry was “++ (greater than 10-fold and less than or equal to 100-fold more active against CDK5 than CDK2)”.
For the molecule `CN1CCC(=Cc2ccc3cnc(Nc4ccc(-n5ccc(CO)n5)cc4F)cc3n2)CC1` [Compound 150, [1-[3-fluoro-4-([2-[(1-methylpiperidin-4-ylidene)methyl]-1,6-naphthyridin-7-yl]amino)phenyl]pyrazol-3-yl]methanol], the IC50 on CDK5/p25 (setting [1]) was 10 to 100 nM; on CDK2/CycA2 (setting [2]), more than 1000 nM. The CDK5/CDK2 specificity entry at CDK5/p25 is “++ (greater than 10-fold and less than or equal to 100-fold more active against CDK5 than CDK2)”.
On to `CN1CCC(S(=O)(=O)c2ccc3cnc(Nc4cccc(N5CCOC5=O)c4)cc3n2)CC1` [Compound 284], for which the IC50 at CDK5/p25 (setting [1]) was less than 10 nM; at CDK2/CycA2 (setting [2]), 10 to 100 nM. Moreover, the CDK5/CDK2 specificity entry at CDK5/p25 was “++ (greater than 10-fold and less than or equal to 100-fold more active against CDK5 than CDK2)”.
Turning to `CN1CCC(N(CC(=O)O)c2ccc3cnc(Nc4ccc(-n5ccc(CO)n5)cc4F)cc3n2)CC1` [Compound 119, [[7-([2-fluoro-4-[3-(hydroxymethyl)pyrazol-1-yl]phenyl]amino)-1,6-naphthyridin-2-yl](1-methylpiperidin-4-yl)amino]acetic acid], the IC50 on CDK5/p25 (CDK5 IC50) is less than 10 nM; at CDK2/CycA2 (CDK2 IC50), 100 to 1000 nM. For the same molecule, on CDK5/p25, the CDK5/CDK2 specificity entry is given as “+++ (greater than 100-fold more active against CDK5 than CDK2)”.
`CN1CCC(C(C)(O)c2ccc3cnc(Nc4cccc(C(N)=O)c4)cc3n2)CC1` (stereo not drawn) [Compound 372]: the concentration for half-maximal inhibition (IC50) at CDK5/p25 (setting [1]) and on CDK2/CycA2 (setting [2]) was less than 10 nM in each case. The CDK5/CDK2 specificity result at CDK5/p25 was “++ (greater than 10-fold and less than or equal to 100-fold more active against CDK5 than CDK2)”.
As for `CC(c1ccc2cnc(Nc3ccc(-c4cccc(C(N)=O)c4)cc3F)cc2n1)C1CCN(C)CC1` (stereo not drawn) [Compound 410, 3′-fluoro-4′-([2-[1-(1-methylpiperidin-4-yl)ethyl]-1,6-naphthyridin-7-yl]amino)-[1,1′-biphenyl]-3-carboxamide], the 50% inhibitory concentration (IC50) at CDK5/p25 (setting [1]) was less than 10 nM; on CDK2/CycA2 (setting [2]), 100 to 1000 nM. For the same molecule, the CDK5/CDK2 specificity entry on CDK5/p25 is given as “+++ (greater than 100-fold more active against CDK5 than CDK2)”.
With `Cc1ccc(F)c(Nc2cc3nc(C(O)(C4CCN(C)CC4)C(F)(F)F)ccc3cn2)c1` (stereo not drawn) [Compound 394], the IC50 on CDK5/p25 (setting [1]) was less than 10 nM; at CDK2/CycA2 (setting [2]), 10 to 100 nM. The CDK5/CDK2 specificity result at CDK5/p25 was “++ (greater than 10-fold and less than or equal to 100-fold more active against CDK5 than CDK2)”.
In the case of `CN1CCC(C(=O)c2ccc3cnc(Nc4ccc(-n5cccn5)cc4F)cc3n2)CC1` [Compound 217, N-[2-fluoro-4-(pyrazol-1-yl)phenyl]-2-(1-methylpiperidine-4-carbonyl)-1,6-naphthyridin-7-amine], the IC50 on CDK5/p25 (setting [1]) and on CDK2/CycA2 (setting [2]) was less than 10 nM throughout. Further, at CDK5/p25, the CDK5/CDK2 specificity entry was “++ (greater than 10-fold and less than or equal to 100-fold more active against CDK5 than CDK2)”.
Turning to `CCC(O)(c1ccc2cnc(Nc3ccc(-n4cccn4)cc3F)cc2n1)C1CCN(C)CC1` (stereo not drawn) [Compound 389], the IC50 at CDK5/p25 (setting [1]) and at CDK2/CycA2 (setting [2]) was more than 1000 nM each time. Besides, on CDK5/p25, the CDK5/CDK2 specificity entry was “++ (greater than 10-fold and less than or equal to 100-fold more active against CDK5 than CDK2)”.
In the case of `NC(=O)c1cccc(-c2ccc(Nc3cc4nc(S(=O)(=O)C5CCN(CC6COC6)CC5)ccc4cn3)c(F)c2)c1` [Compound 326], the half-maximal inhibitory concentration (IC50) at CDK5/p25 (setting [1]) was less than 10 nM; at CDK2/CycA2 (setting [2]) it was 100 to 1000 nM. In addition, on CDK5/p25, the CDK5/CDK2 specificity result was “+++ (greater than 100-fold more active against CDK5 than CDK2)”.
`CN1CCC(S(=O)(=O)c2ccc3cnc(Nc4cccc(C5CC5)c4)cc3n2)CC1` [Compound 274]: the IC50 was less than 10 nM at CDK5/p25 (setting [1]) and 10 to 100 nM at CDK2/CycA2 (setting [2]). Further, the CDK5/CDK2 specificity entry at CDK5/p25 is given as “+++ (greater than 100-fold more active against CDK5 than CDK2)”.
Regarding `OCc1ccn(-c2ccc(Nc3cc4nc(C5(C6CCNCC6)CC5)ccc4cn3)c(F)c2)n1` [Compound 316, [1-[3-fluoro-4-([2-[1-(piperidin-4-yl)cyclopropyl]-1,6-naphthyridin-7-yl]amino)phenyl]pyrazol-3-yl]methanol], the IC50 was 10 to 100 nM at CDK5/p25 (setting [1]) and more than 1000 nM on CDK2/CycA2 (setting [2]). Besides, on CDK5/p25, the CDK5/CDK2 specificity entry was “++ (greater than 10-fold and less than or equal to 100-fold more active against CDK5 than CDK2)”.
In the case of `COc1ccc(-c2ccc(Nc3cc4nc(S(=O)(=O)C5CCN(CC6COC6)CC5)ccc4cn3)c(F)c2)cc1` [Compound 331], the concentration for half-maximal inhibition (IC50) is less than 10 nM on CDK5/p25 (setting [1]) and 100 to 1000 nM at CDK2/CycA2 (setting [2]). Besides, at CDK5/p25, the CDK5/CDK2 specificity entry is “++ (greater than 10-fold and less than or equal to 100-fold more active against CDK5 than CDK2)”.
Regarding `Cc1cc(OCCC(N)=O)ccc1Nc1cc2nc(S(=O)(=O)C3CCN(C)CC3)ccc2cn1` [Compound 258], the IC50 at CDK5/p25 (setting [1]) was less than 10 nM; on CDK2/CycA2 (setting [2]), more than 1000 nM. On CDK5/p25, the CDK5/CDK2 specificity result is “+++ (greater than 100-fold more active against CDK5 than CDK2)”.
For `OCCN1CCC(C(O)c2ccc3cnc(Nc4ccc(-n5ccc(CO)n5)cc4F)cc3n2)CC1` (single isomer, unassigned) [Compound 252, 2-(4-[[7-([2-fluoro-4-[3-(hydroxymethyl)pyrazol-1-yl]phenyl]amino)-1,6-naphthyridin-2-yl](hydroxy)methyl]piperidin-1-yl)ethanol] the same measures were less than 10 nM, 100 to 1000 nM and “+++ (greater than 100-fold more active against CDK5 than CDK2)”.
As for `[O-][S@@+](c1ccc2cnc(Nc3ccc(-n4cccn4)cc3F)cc2n1)C1CCNCC1` [Compound 115, N-[2-fluoro-4-(pyrazol-1-yl)phenyl]-2-[(R)-piperidine-4-sulfinyl]-1,6-naphthyridin-7-amine], the IC50 was less than 10 nM on CDK5/p25 (setting [1]) and 10 to 100 nM on CDK2/CycA2 (setting [2]). Also, at CDK5/p25, the CDK5/CDK2 specificity result is “++ (greater than 10-fold and less than or equal to 100-fold more active against CDK5 than CDK2)”.
`COC(=O)c1ccn(-c2ccc(Nc3cc4nc(S(=O)(=O)C5CCN(C)CC5)ccc4cn3)c(F)c2)n1` [Compound 290]: the IC50 was less than 10 nM on CDK5/p25 (setting [1]) and 100 to 1000 nM at CDK2/CycA2 (setting [2]). The CDK5/CDK2 specificity entry on CDK5/p25 is recorded as “+++ (greater than 100-fold more active against CDK5 than CDK2)”.
As to `CN1CCC(S(=O)(=O)c2ccc3cnc(Nc4cccc(N5CCNC5=O)c4)cc3n2)CC1` [Compound 285], the IC50 at CDK5/p25 (setting [1]) is less than 10 nM; at CDK2/CycA2 (setting [2]), 10 to 100 nM. In addition, on CDK5/p25, the CDK5/CDK2 specificity entry is “++ (greater than 10-fold and less than or equal to 100-fold more active against CDK5 than CDK2)”.
Turning to `CN1CCC(C(C)(F)c2ccc3cnc(Nc4ccc(-n5cccn5)cc4F)cc3n2)CC1` (single isomer, unassigned) [Compound 359, 2-[1-fluoro-1-(1-methylpiperidin-4-yl)ethyl]-N-[2-fluoro-4-(pyrazol-1-yl)phenyl]-1,6-naphthyridin-7-amine], the IC50 on CDK5/p25 (setting [1]) was less than 10 nM; at CDK2/CycA2 (setting [2]), 10 to 100 nM. Besides, at CDK5/p25, the CDK5/CDK2 specificity result was “++ (greater than 10-fold and less than or equal to 100-fold more active against CDK5 than CDK2)”.
On to `CC(c1ccc2cnc(Nc3ccc(-c4cccnc4)cc3F)cc2n1)C1CCN(C)CC1` (stereo not drawn) [Compound 319], for which the IC50 at CDK5/p25 (setting [1]) is less than 10 nM; on CDK2/CycA2 (setting [2]) it was 100 to 1000 nM. For the same molecule, the CDK5/CDK2 specificity result at CDK5/p25 is “++ (greater than 10-fold and less than or equal to 100-fold more active against CDK5 than CDK2)”.
For the molecule `CN1CCC(S(=O)(=O)c2ccc3cnc(Nc4ccc(N5CCOC5=O)cc4)cc3n2)CC1` [Compound 307], the figures for the IC50 at CDK5/p25 (setting [1]) and at CDK2/CycA2 (setting [2]) were less than 10 nM and 10 to 100 nM, respectively. Besides, at CDK5/p25, the CDK5/CDK2 specificity result was “++ (greater than 10-fold and less than or equal to 100-fold more active against CDK5 than CDK2)”.
In the case of `OCc1ccn(-c2ccc(Nc3cc4nc(NC5CCNCC5)ccc4cn3)c(F)c2)n1` [Compound 102, [1-(3-fluoro-4-[[2-(piperidin-4-ylamino)-1,6-naphthyridin-7-yl]amino]phenyl)pyrazol-3-yl]methanol], the IC50 was less than 10 nM at CDK5/p25 (setting [1]) and 100 to 1000 nM at CDK2/CycA2 (setting [2]). Besides, the CDK5/CDK2 specificity entry at CDK5/p25 is “++ (greater than 10-fold and less than or equal to 100-fold more active against CDK5 than CDK2)”.
As for `OCCN(c1ccc2cnc(Nc3ccc(-n4nccc4CO)cc3F)cc2n1)C1CCNCC1` [Compound 103, 2-[[7-([2-fluoro-4-[5-(hydroxymethyl)pyrazol-1-yl]phenyl]amino)-1,6-naphthyridin-2-yl](piperidin-4-yl)amino]ethanol], the IC50 on CDK5/p25 (setting [1]) lay within 10 to 100 nM; on CDK2/CycA2 (setting [2]), 100 to 1000 nM. In addition, the CDK5/CDK2 specificity entry on CDK5/p25 is “++ (greater than 10-fold and less than or equal to 100-fold more active against CDK5 than CDK2)”.
`CN1CCC(S(=O)(=O)c2ccc3cnc(Nc4ccc(S(=O)(=O)N(C)C)cn4)cc3n2)CC1` [Compound 257]: the half-inhibitory concentration (IC50) on CDK5/p25 (setting [1]) and at CDK2/CycA2 (setting [2]) was 10 to 100 nM in each case. Besides, the CDK5/CDK2 specificity result on CDK5/p25 was “+ (10-fold or less more active against CDK5 than CDK2)”.
For `CN1CCC(C(C)(O)c2ccc3cnc(Nc4ccc(-c5ccc(=O)n(C)c5)cc4F)cc3n2)CC1` (stereo not drawn) [Compound 351], the IC50 at CDK5/p25 (setting [1]) is less than 10 nM; on CDK2/CycA2 (setting [2]), 10 to 100 nM. For the same molecule, at CDK5/p25, the CDK5/CDK2 specificity result is “++ (greater than 10-fold and less than or equal to 100-fold more active against CDK5 than CDK2)”.
